From patent US9073863B2, “Cyanoquinoline compounds having activity in correcting mutant-CFTR processing and increasing ion transport and uses thereof” (The Regents of the University of California, priority 2011, dated 2015) come the findings set out here.

What all share (format): cell-based
Assay [1] addresses T1, wildtype CFTR (Homo sapiens, UniProt P13569).
T1 construct: expressed in transfected cells; host or cells: Fischer rat thyroid (FRT) epithelial cells, stably transfected
Description: Short-circuit current in FRT cells expressing wildtype CFTR. Particulars: added after 0.25 or 0.5 μM forskolin. As to the method:
To further investigate Compound 22 potentiator action, short-circuit current was measured in FRT cells expressing wildtype CFTR (FIG. 5B). Studies were done as in FIG. 5A except that low concentrations of forskolin (0-0.5 μM) were used because higher concentrations fully activate wildtype CFTR and thus would mask Compound 22 potentiator action. As found for ΔF508-CFTR, there was little effect of Compound 22 in the absence of forskolin. In each experiment, after Compound 22 additions, 10 μM forskolin was added to fully activate wildtype CFTR, followed by 50 μM genistein, which had little effect, followed by 10 μM CFTRinh-172, which inhibited all chloride current.

Assay [2] concerns the target T2, G551D-CFTR (Homo sapiens, UniProt P13569, G551D).
T2 construct: expressed in transfected cells; host or cells: Fischer rat thyroid (FRT) epithelial cells, stably transfected
The assay can be described thus: Short-circuit current in FRT cells expressing G551D-CFTR. The following applies: in the presence of forskolin, vs genistein. As to the method: (§1) Potentiator studies were also performed in FRT cells expressing G551D-CFTR, a CF-causing CFTR mutation with defective channel gating but not plasma membrane trafficking. […] Where indicated, genistein (100 μM) and CFTRinh-172 (10 μM) were added. Graphs are representative of 3 sets of measurements. […] Measurements were made in the presence of 20 μM forskolin.

For assay [3], the target named is T2, G551D-CFTR. The assay can be described thus: Plate reader assay of G551D-CFTR chloride conductance in FRT cells. The following applies: in the presence of 20 μM forskolin. On the procedure:
as §1
Representative fluorescence quenching curves (FIG. 6B (top)) shown with deduced Compound 22 and genistein concentration dependence (FIG. 6B (bottom), SEM, n=4). Fluorescence plate reader assays in FIG. 6B confirmed that Compound 22 activated G551D-CFTR in the presence of forskolin, with lower maximal efficacy than genistein.

T2 sequence (P13569 whole entry G551D): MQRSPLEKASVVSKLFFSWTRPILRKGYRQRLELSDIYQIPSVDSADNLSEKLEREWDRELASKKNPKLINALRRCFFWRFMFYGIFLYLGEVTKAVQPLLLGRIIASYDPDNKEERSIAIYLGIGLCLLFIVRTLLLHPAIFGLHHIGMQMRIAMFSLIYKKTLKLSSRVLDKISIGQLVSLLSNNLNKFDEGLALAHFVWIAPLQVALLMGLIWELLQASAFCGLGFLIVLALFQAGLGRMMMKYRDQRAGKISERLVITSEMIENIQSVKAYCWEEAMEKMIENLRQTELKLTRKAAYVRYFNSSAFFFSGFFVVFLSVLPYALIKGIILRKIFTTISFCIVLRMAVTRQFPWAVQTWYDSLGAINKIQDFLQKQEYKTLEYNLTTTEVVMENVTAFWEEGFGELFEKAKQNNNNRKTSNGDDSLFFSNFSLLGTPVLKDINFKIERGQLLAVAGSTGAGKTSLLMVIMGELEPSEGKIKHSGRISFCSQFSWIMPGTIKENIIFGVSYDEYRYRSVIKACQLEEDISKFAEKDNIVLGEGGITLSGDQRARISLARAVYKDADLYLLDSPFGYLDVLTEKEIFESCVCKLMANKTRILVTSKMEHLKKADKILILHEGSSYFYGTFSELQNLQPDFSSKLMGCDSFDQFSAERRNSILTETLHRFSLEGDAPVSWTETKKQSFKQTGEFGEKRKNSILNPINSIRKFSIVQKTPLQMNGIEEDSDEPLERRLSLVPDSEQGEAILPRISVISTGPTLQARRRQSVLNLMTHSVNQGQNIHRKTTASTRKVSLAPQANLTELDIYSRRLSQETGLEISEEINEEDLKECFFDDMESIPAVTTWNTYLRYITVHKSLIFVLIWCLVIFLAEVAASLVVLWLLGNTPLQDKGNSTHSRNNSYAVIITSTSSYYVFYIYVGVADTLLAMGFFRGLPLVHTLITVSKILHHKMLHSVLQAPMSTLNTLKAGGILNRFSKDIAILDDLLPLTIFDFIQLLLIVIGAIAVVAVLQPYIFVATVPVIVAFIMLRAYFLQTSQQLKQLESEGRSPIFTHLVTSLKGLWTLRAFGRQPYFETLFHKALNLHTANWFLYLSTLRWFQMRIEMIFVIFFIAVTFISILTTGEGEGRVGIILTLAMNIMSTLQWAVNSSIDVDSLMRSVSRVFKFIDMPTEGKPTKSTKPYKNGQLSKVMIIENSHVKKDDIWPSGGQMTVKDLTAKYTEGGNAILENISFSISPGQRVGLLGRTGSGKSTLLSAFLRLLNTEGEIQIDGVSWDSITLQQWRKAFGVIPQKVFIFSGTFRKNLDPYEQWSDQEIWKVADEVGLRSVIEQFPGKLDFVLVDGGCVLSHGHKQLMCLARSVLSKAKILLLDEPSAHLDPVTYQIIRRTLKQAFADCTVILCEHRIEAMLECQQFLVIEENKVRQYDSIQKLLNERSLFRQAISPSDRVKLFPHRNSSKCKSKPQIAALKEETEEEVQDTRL
T1 sequence (P13569 whole entry): as the sequence (P13569 whole entry G551D) above, with D551G counted along it

For `COc1cccc(C(=O)NCCNc2nc3cc(C)cc(C)c3cc2C#N)c1` [Compound 22, N-(2-((3-Cyano-5,7-dimethylquinolin-2-yl)amino)ethyl)-3-methoxybenzamide], the “activation of wildtype CFTR, in words” value in assay [1] was “partially activated”. Further, the concentration for a half-maximal effect (EC50) in assay [1] (read-out: EC50 of wildtype CFTR activation) is approximately 10 µM; in assay [3] (read-out: Apparent EC50 for activation of G551-CFTR) it was approximately 5 µM. Further, the “potentiator action on G551D-CFTR chloride current” value in assay [2] was “weak potentiator”. The “maximum efficacy of G551D-CFTR activation” value in assay [3] is recorded as “lower than that of genistein”.

In general, EC50 refers to the concentration giving half of the maximal effect.
